Results reported in patent publication US20050089488A1, “Deodorant composition with monocyclic, unsaturated sequiterpene alcohols and glyceryl monoalkyl ethers as synergistic active deodorant agents” (priority 2003, published 2005).

Key:
[1] = system: Staphylococcus aureus (ATCC 6538); assay: Surviving microorganisms after direct inoculation of gel formula; type: cell-based
Method: The antimicrobially synergistically effect of alpha bisabolol (Natural) for glyceryl monoalkyl ether was studied and the results are summarized in Tables 15 and 16, below. […] Subsequently the steareth-100, sodium stearate, and […] alcohol were added and the mixture cooled. […] The final compositions were then poured into containers and cooled to room temperature. […] Therefore following formula is gel type. Inoculate test microorganisms to provide a suspension containing from 105 to 106 microorganisms/ml and after 1 hr, 5 hr and 24 hr, check the surviving microorganisms by incubating in the soybean-casein digest agar for 24 hours at 32.5° C. the results are summarized below.

[2] = cited from earlier work
[3] = 0.3% by weight in ethanol base deodorant, versus triclosan; cited from earlier work
[4] = system: odor-causing gram positive bacteria; details: cited from earlier work

Compound	anti-microbial activity alone ([1]; 0.2% by weight, with no ethylhexylglycerin)	effect on the anti-microbial activity of ethylhexylglycerin ([1]; combination with ethylhexylglycerin)	stability ([2]; against hydrolysis and elevated temperatures)	solubility in fats and organic solvents ([2]; fats, alcohols, glycols and glycol ethers)	solubility in water ([2]; water) [%]	deodorant effectiveness [3]	anti-microbial activity against odor-causing gram positive bacteria [4]
CC(C)=CCC[C@](C)(O)[C@@H]1CC=C(C)CC1 [alpha bisabolol (Natural), alpha-bisabolol]	no anti-microbial activity	surprising and unexpected synergistic effect	–	–	–	–	–
CCCCC(CC)COCC(O)CO (stereo not shown) [Ethylhexylglycerin]	–	–	rather stable	completely soluble	0.2	just as effective as 0.1% by weight triclosan	very low
